Measurements: patent US12187721B2, “Protein tyrosine phosphatase inhibitors” (Array BioPharma Inc., priority 2018, dated 2025)

Biological target: T1, full-length SHP2 (His6-tagged SHP2(2-527)) (Homo sapiens, UniProt Q06124)
T1 construct: His6-tagged SHP2(2-527); His6; made in house; host or cells: E. coli
Experiment: SHP2 Enzymatic Assay (fluorescence intensity kinetic assay, DiFMUP hydrolysis)
Assay type: biochemical
Method in brief: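 1 nM His6-SHP2(2-527), activated by 1 μM bis-phosphopeptide, hydrolysed 50 μM DiFMUP in 25 mM HEPES pH 7.4 with 1 mM DTT, 50 mM KCl and 2% DMSO. DiFMU fluorescence (Ex 355/Em 460 nm) was read kinetically for 15 min at ambient temperature.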

T1 sequence (Q06124 2-527): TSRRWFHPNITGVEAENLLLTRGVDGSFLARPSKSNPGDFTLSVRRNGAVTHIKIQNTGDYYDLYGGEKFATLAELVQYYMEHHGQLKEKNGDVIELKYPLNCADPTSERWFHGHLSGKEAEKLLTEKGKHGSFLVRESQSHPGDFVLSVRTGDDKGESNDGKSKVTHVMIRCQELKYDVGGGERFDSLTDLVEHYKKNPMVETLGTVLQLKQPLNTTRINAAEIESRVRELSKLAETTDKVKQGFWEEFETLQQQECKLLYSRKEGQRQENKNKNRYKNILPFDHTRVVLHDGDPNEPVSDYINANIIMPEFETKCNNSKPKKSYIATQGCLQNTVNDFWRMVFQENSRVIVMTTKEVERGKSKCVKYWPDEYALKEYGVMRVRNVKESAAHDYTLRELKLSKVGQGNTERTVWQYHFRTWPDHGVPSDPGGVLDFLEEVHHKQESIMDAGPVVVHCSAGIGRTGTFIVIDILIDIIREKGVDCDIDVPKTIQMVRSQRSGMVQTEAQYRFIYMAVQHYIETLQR

Row | SMILES | IC50 [nM]
1 | Nc1nccc(Sc2ccc3nc(N4CCC(N)(Cc5ccccc5)CC4)cnc3n2)c1Cl [Example 181, 4-((2-(4-amino-4-benzylpiperidin-1-yl)pyrido[2,3-b]pyrazin-6-yl)thio)-3-chloropyridin-2-amine] | 75
2 | COCCC1(N)CCN(c2cnc3nc(Sc4ccnc(N)c4Cl)ccc3n2)CC1 [Example 182, 4-((2-(4-amino-4-(2-methoxyethyl)piperidin-1-yl)pyrido[2,3-b]pyrazin-6-yl)thio)-3-chloropyridin-2-amine] | 80
3 | COCCNc1nccc(Sc2ccc3nc(N4CCC5(CC4)CO[C@@H](C)[C@H]5N)cnc3n2)c1Cl [Example 183, (3S,4S)-8-(6-((3-chloro-2-((2-methoxyethyl)amino)pyridin-4-yl)thio)pyrido[2,3-b]pyrazin-2-yl)-3-methyl-2-oxa-8-azaspiro[4.5]decan-4-amine] | 268
4 | C[C@@H]1OCC2(CCN(c3cnc4nc(Sc5ccnc(NC6CC6)c5Cl)ccc4n3)CC2)[C@@H]1N [Example 184, (3S,4S)-8-(6-((3-chloro-2-(cyclopropylamino)pyridin-4-yl)thio)pyrido[2,3-b]pyrazin-2-yl)-3-methyl-2-oxa-8-azaspiro[4.5]decan-4-amine] | 413
5 | C[C@@H]1OCC2(CCN(c3cnc4nc(Sc5ccncc5F)ccc4n3)CC2)[C@@H]1N [Example 186, (3S,4S)-8-(6-((3-fluoropyridin-4-yl)thio)pyrido[2,3-b]pyrazin-2-yl)-3-methyl-2-oxa-8-azaspiro[4.5]decan-4-amine] | 2310
6 | C[C@@H]1OCC2(CCN(c3cnc4nc(Sc5ccncc5Cl)ccc4n3)CC2)[C@@H]1N [Example 187, (3S,4S)-8-(6-((3-chloropyridin-4-yl)thio)pyrido[2,3-b]pyrazin-2-yl)-3-methyl-2-oxa-8-azaspiro[4.5]decan-4-amine] | 261
7 | C[C@@H]1OCC2(CCN(c3cnc4nc(Sc5ccncc5C(F)(F)F)ccc4n3)CC2)[C@@H]1N [Example 188, (3S,4S)-3-methyl-8-(6-((3-(trifluoromethyl)pyridin-4-yl)thio)pyrido[2,3-b]pyrazin-2-yl)-2-oxa-8-azaspiro[4.5]decan-4-amine] | 151
8 | C[C@@H]1OCC2(CCN(c3cnc4nc(Sc5ccnc(C(F)(F)F)c5)ccc4n3)CC2)[C@@H]1N [Example 190, (3S,4S)-3-methyl-8-(6-((2-(trifluoromethyl)pyridin-4-yl)thio)pyrido[2,3-b]pyrazin-2-yl)-2-oxa-8-azaspiro[4.5]decan-4-amine] | 3650
9 | C[C@@H]1OCC2(CCN(c3cnc4nc(Sc5ccnc6c5ccn6C)ccc4n3)CC2)[C@@H]1N [Example 191, (3S,4S)-3-methyl-8-(6-((1-methyl-1H-pyrrolo[2,3-b]pyridin-4-yl)thio)pyrido[2,3-b]pyrazin-2-yl)-2-oxa-8-azaspiro[4.5]decan-4-amine] | 134
10 | C[C@@H]1OCC2(CCN(c3cnc4nc(Sc5c(Cl)cnc6[nH]ccc56)ccc4n3)CC2)[C@@H]1N [Example 192, (3S,4S)-8-(6-((5-chloro-1H-pyrrolo[2,3-b]pyridin-4-yl)thio)pyrido[2,3-b]pyrazin-2-yl)-3-methyl-2-oxa-8-azaspiro[4.5]decan-4-amine] | 45
11 | C[C@@H]1OCC2(CCN(c3cnc4nc(Sc5c(C(F)(F)F)cnc6[nH]ccc56)ccc4n3)CC2)[C@@H]1N [Example 193, (3S,4S)-3-methyl-8-(6-((5-(trifluoromethyl)-1H-pyrrolo[2,3-b]pyridin-4-yl)thio)pyrido[2,3-b]pyrazin-2-yl)-2-oxa-8-azaspiro[4.5]decan-4-amine] | 138
12 | COCCNc1nccc(Sc2ccc3nc(N4CCC(C)(N)CC4)cnc3n2)c1Cl [Example 194, 4-((2-(4-amino-4-methylpiperidin-1-yl)pyrido[2,3-b]pyrazin-6-yl)thio)-3-chloro-N-(2-methoxyethyl)pyridin-2-amine] | 238
13 | COCCCNc1nccc(Sc2ccc3nc(N4CCC(C)(N)CC4)cnc3n2)c1Cl [Example 195, 4-((2-(4-amino-4-methylpiperidin-1-yl)pyrido[2,3-b]pyrazin-6-yl)thio)-3-chloro-N-(3-methoxypropyl)pyridin-2-amine] | 506
14 | CC1(N)CCN(c2cnc3nc(Sc4ccnc5c4CCN5)ccc3n2)CC1 [Example 196, 1-(6-((2,3-dihydro-1H-pyrrolo[2,3-b]pyridin-4-yl)thio)pyrido[2,3-b]pyrazin-2-yl)-4-methylpiperidin-4-amine] | 563
15 | CC1(N)CCN(c2cnc3nc(Sc4ccnc5ncccc45)ccc3n2)CC1 [Example 197, 1-(6-((1,8-naphthyridin-4-yl)thio)pyrido[2,3-b]pyrazin-2-yl)-4-methylpiperidin-4-amine] | 1510
16 | Nc1nccc(Sc2ccc3nc(N4CCC(O)(CO)CC4)cnc3n2)c1Cl [Example 198, 1-(6-((2-amino-3-chloropyridin-4-yl)thio)pyrido[2,3-b]pyrazin-2-yl)-4-(hydroxymethyl)piperidin-4-ol] | 3990
17 | Nc1nccc(Sc2ccc3nc(N4C[C@H]5CC[C@@H](C4)[C@@H]5N)cnc3n2)c1Cl [Example 199, (1R,5S,8s)-3-(6-((2-amino-3-chloropyridin-4-yl)thio)pyrido[2,3-b]pyrazin-2-yl)-3-azabicyclo[3.2.1]octan-8-amine] | 344
18 | Nc1nccc(Sc2ccc3nc(N4CC5CCC(C4)N5)cnc3n2)c1Cl [Example 201, 4-((2-(3,8-diazabicyclo[3.2.1]octan-3-yl)pyrido[2,3-b]pyrazin-6-yl)thio)-3-chloropyridin-2-amine] | 130
19 | Nc1nccc(Sc2ccc3nc(N4CC5CCC4CNC5)cnc3n2)c1Cl (stereo not shown) [Example 202, 4-((2-(3,6-diazabicyclo[3.2.2]nonan-6-yl)pyrido[2,3-b]pyrazin-6-yl)thio)-3-chloropyridin-2-amine] | 132
20 | Nc1nccc(Sc2ccc3nc(N4C[C@@H]5C[C@H]4CN5)cnc3n2)c1Cl [Example 203, 4-((2-((1S,4S)-2,5-diazabicyclo[2.2.1]heptan-2-yl)pyrido[2,3-b]pyrazin-6-yl)thio)-3-chloropyridin-2-amine] | 142
21 | Nc1nccc(Sc2ccc3nc(N4C5CCC4CNC5)cnc3n2)c1Cl [Example 204, 4-((2-(3,8-diazabicyclo[3.2.1]octan-8-yl)pyrido[2,3-b]pyrazin-6-yl)thio)-3-chloropyridin-2-amine] | 47
22 | Nc1nccc(Sc2ccc3nc(N4C5CNCC4C5)cnc3n2)c1Cl [Example 205] | 114
23 | Nc1nccc(Sc2ccc3nc(N4CC5CNCC(C4)O5)cnc3n2)c1Cl [Example 206, 4-((2-(9-oxa-3,7-diazabicyclo[3.3.1]nonan-3-yl)pyrido[2,3-b]pyrazin-6-yl)thio)-3-chloropyridin-2-amine] | 2030
24 | Nc1nccc(Sc2ccc3nc(N4CC5COCC(C4)N5)cnc3n2)c1Cl [Example 207, 4-((2-(3-oxa-7,9-diazabicyclo[3.3.1]nonan-7-yl)pyrido[2,3-b]pyrazin-6-yl)thio)-3-chloropyridin-2-amine] | 730
25 | Nc1nccc(Sc2ccc3nc(N4C[C@@H]5CC[C@H]4CN5)cnc3n2)c1Cl [Example 208, 4-((2-((1S,4S)-2,5-diazabicyclo[2.2.2]octan-2-yl)pyrido[2,3-b]pyrazin-6-yl)thio)-3-chloropyridin-2-amine] | 67
